Assay results reported in patent US9540392B2, “Thienopyrimidines” (BAYER PHARMA AKTIENGESELLSCHAFT, priority 2012, dated 2017).

Molecular target: T1, human full-length MKNK1 (Homo sapiens, UniProt Q9BUB5, T385D)
T1 construct: GST (N); purchased Carna Biosciences 02-145; host or cells: insect cells (baculovirus expression system)
Test: MKNK1 kinase high ATP assay (TR-FRET)
Format: biochemical
Conditions: 2 mM ATP, after preincubation with MKNK1; read-out: MKNK1 IC50 (MKNK1 high ATP)
In short: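 Compound was preincubated 15 min at 22° C. with MKNK1 in 50 mM HEPES pH 7.5, 5 mM MgCl2, 1.0 mM DTT, then the reaction ran 30 min at 22° C. with 2 mM ATP and 0.06 μM biotinylated peptide (final).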

T1 sequence (Q9BUB5 1-424 isoform Q9BUB5-2 T344D): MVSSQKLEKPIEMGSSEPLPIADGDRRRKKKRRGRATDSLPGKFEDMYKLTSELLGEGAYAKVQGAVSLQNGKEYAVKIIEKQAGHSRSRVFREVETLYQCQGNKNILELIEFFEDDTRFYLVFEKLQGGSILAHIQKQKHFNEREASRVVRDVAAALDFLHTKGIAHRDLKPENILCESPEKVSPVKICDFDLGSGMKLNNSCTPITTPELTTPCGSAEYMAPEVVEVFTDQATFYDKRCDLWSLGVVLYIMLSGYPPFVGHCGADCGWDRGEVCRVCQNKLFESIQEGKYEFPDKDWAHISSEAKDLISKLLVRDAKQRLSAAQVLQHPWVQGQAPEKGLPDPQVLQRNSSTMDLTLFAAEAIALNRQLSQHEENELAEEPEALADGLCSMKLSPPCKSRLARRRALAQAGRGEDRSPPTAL

Row | SMILES | IC50 [nM]
1 | CNC(=O)C1CCc2c(sc3ncnc(Nc4ccc5[nH]ncc5c4)c23)C1 (stereo not drawn) [Example 11, 4-(1H-indazol-5-ylamino)-N-methyl-5,6,7,8-tetrahydro[1]benzothieno[2,3-d]pyrimidine-7-carboxamide] | 10
2 | O=C(C1CCc2c(sc3ncnc(Nc4ccc5[nH]ncc5c4)c23)C1)N1CCC(c2ccccc2)CC1 (racemic) [Example 127, (RS)-[4-(1H-indazol-5-ylamino)-5,6,7,8-tetrahydro[1]benzothieno[2,3-d]pyrimidin-7-yl](4-phenylpiperidin-1-yl)methanone] | 10.7
3 | O=C(NCc1cc[nH]n1)C1CCc2c(sc3ncnc(Nc4ccc5[nH]ncc5c4)c23)C1 (racemic) [Example 139, (RS)-4-(1H-indazol-5-ylamino)-N-(1H-pyrazol-3-ylmethyl)-5,6,7,8-tetrahydro[1]benzothieno[2,3-d]pyrimidine-7-carboxamide] | 6.9
4 | CN(CCCO)C(=O)C1CCc2c(sc3ncnc(Nc4ccc5[nH]ncc5c4)c23)C1 (racemic) [Example 202, (RS)-N-(3-hydroxypropyl)-4-(1H-indazol-5-ylamino)-N-methyl-5,6,7,8-tetrahydro[1]benzothieno[2,3-d]pyrimidine-7-carboxamide] | 15
5 | O=C(NCc1cccnc1)C1CCc2c(sc3ncnc(Nc4ccc5[nH]ncc5c4)c23)C1 (racemic) [Example 76, (RS)-4-(1H-Indazol-5-ylamino)-N-(pyridin-3-ylmethyl)-5,6,7,8-tetrahydro[1]benzothieno[2,3-d]pyrimidine-7-carboxamide] | 5.1
6 | N#Cc1ccc(N2CCN(C(=O)C3CCc4c(sc5ncnc(Nc6ccc7[nH]ncc7c6)c45)C3)CC2)cc1 (racemic) [Example 141, (RS)-4-(4-{[4-(1H-indazol-5-ylamino)-5,6,7,8-tetrahydro[1]benzothieno[2,3-d]pyrimidin-7-yl]carbonyl}piperazin-1-yl)benzonitrile] | 17.4
7 | COc1cc2[nH]ncc2cc1Nc1ncnc2sc3c(c12)CCC(C(=O)N1CC(OC(=O)N(C)C)C1)C3 (racemic) [Example 275, (RS)-1-({4-[(6-Methoxy-1H-indazol-5-yl)amino]-5,6,7,8-tetrahydro[1]benzothieno[2,3-d]pyrimidin-7-yl}carbonyl)azetidin-3-yl dimethylcarbamate] | 19.8
8 | O=C(C1CCc2c(sc3ncnc(Nc4ccc5[nH]ncc5c4)c23)C1)N1CCCCC1 (racemic) [Example 82, (RS)-[4-(1H-indazol-5-ylamino)-5,6,7,8-tetrahydro[1]benzothieno[2,3-d]pyrimidin-7-yl](piperidin-1-yl)methanone] | 14.6
9 | O=C(C1CCc2c(sc3ncnc(Nc4ccc5[nH]ncc5c4)c23)C1)N1CCC(O)CC1 (racemic) [Example 85, (RS)-(4-hydroxypiperidin-1-yl)[4-(1H-indazol-5-ylamino)-5,6,7,8-tetrahydro[1]benzothieno[2,3-d]pyrimidin-7-yl]methanone] | 11.7
10 | O=C(Nc1cccnn1)C1CCc2c(sc3ncnc(Nc4ccc5[nH]ncc5c4)c23)C1 (racemic) [Example 149, (RS)-4-(1H-indazol-5-ylamino)-N-(pyridazin-3-yl)-5,6,7,8-tetrahydro[1]benzothieno[2,3-d]pyrimidine-7-carboxamide] | 27.4
11 | O=C(NCC(F)(F)F)C1CCc2c(sc3ncnc(Nc4ccc5[nH]ncc5c4)c23)C1 (stereo not drawn) [Example 33, 4-(1H-Indazol-5-ylamino)-N-(2,2,2-trifluoroethyl)-5,6,7,8-tetrahydro[1] benzothieno [2,3-d]pyrimidine-7-carboxamide] | 5
12 | O=C(NCc1cccs1)C1CCc2c(sc3ncnc(Nc4ccc5[nH]ncc5c4)c23)C1 (racemic) [Example 90, (RS)-4-(1H-indazol-5-ylamino)-N-(thiophen-2-ylmethyl)-5,6,7,8-tetrahydro[1]benzothieno[2,3-d]pyrimidine-7-carboxamide] | 16.4
13 | O=C(C1CCc2c(sc3ncnc(Nc4ccc5[nH]ncc5c4)c23)C1)N1CCCC(CO)C1 (racemic) [Example 88, (RS)-[3-(hydroxymethyl)piperidin-1-yl][4-(1H-indazol-5-ylamino)-5,6,7,8-tetrahydro[1]benzothieno[2,3-d]pyrimidin-7-yl]methanone] | 9.9
14 | O=C(C1CCc2c(sc3ncnc(Nc4ccc5[nH]ncc5c4)c23)C1)N1CCN(c2ccncc2)CC1 (racemic) [Example 112, (RS)-[4-(1H-indazol-5-ylamino)-5,6,7,8-tetrahydro[1]benzothieno[2,3-d]pyrimidin-7-yl][4-(pyridin-4-yl)piperazin-1-yl]methanone] | 9.4
15 | CN(CCO)C(=O)C1CCc2c(sc3ncnc(Nc4ccc5[nH]ncc5c4)c23)C1 (stereo not drawn) [Example 41, N-(2-Hydroxyethyl)-4-(1H-indazol-5-ylamino)-N-methyl-5,6,7,8-tetrahydro[1] benzothieno [2,3-d]pyrimidine-7-carboxamide] | 8
16 | O=C(NC1CC1)C1CCc2c(sc3ncnc(Nc4ccc5[nH]ncc5c4)c23)C1 (racemic) [Example 80, (RS)-N-Cyclopropyl-4-(1H-indazol-5-ylamino)-5,6,7,8-tetrahydro[1]benzothieno[2,3-d]pyrimidine-7-carboxamide] | 9.1
17 | O=C(NCc1ccc(C(F)(F)F)cc1)C1CCc2c(sc3ncnc(Nc4ccc5[nH]ncc5c4)c23)C1 (stereo not drawn) [Example 28, 4-(1H-Indazol-5-ylamino)-N-[4-(trifluoromethyl)benzyl]-5,6,7,8-tetrahydro[1] benzothieno [2,3-d]pyrimidine-7-carboxamide] | 4
18 | N#Cc1ccccc1N1CCN(C(=O)C2CCc3c(sc4ncnc(Nc5ccc6[nH]ncc6c5)c34)C2)CC1 (racemic) [Example 115, (RS)-2-(4-{[4-(1H-indazol-5-ylamino)-5,6,7,8-tetrahydro[1]benzothieno[2,3-d]pyrimidin-7-yl]carbonyl}piperazin-1-yl)benzonitrile] | 15.3
19 | CC1CCN(CCN(C)C(=O)C2CCc3c(sc4ncnc(Nc5ccc6[nH]ncc6c5)c34)C2)CC1 (racemic) [Example 169, (RS)-4-(1H-indazol-5-ylamino)-N-methyl-N-[2-(4-methylpiperidin-1-yl)ethyl]-5,6,7,8-tetrahydro[1]benzothieno[2,3-d]pyrimidine-7-carboxamide] | 11.1
20 | N#Cc1ccc(NC(=O)C2CCc3c(sc4ncnc(Nc5ccc6[nH]ncc6c5)c34)C2)cc1 (racemic) [Example 77, (RS)—N-(4-Cyanophenyl)-4-(1H-indazol-5-ylamino)-5,6,7,8-tetrahydro[1]benzothieno[2,3-d]pyrimidine-7-carboxamide] | 19.7
21 | CN(Cc1cccn1C)C(=O)C1CCc2c(sc3ncnc(Nc4ccc5[nH]ncc5c4)c23)C1 (racemic) [Example 163, (RS)-4-(1H-indazol-5-ylamino)-N-methyl-N-[(1-methyl-1H-pyrrol-2-yl)methyl]-5,6,7,8-tetrahydro[1]benzothieno[2,3-d]pyrimidine-7-carboxamide] | 12.4

Continued by falling IC50, values first:

Row | IC50 [nM] | SMILES
22 | 3.9 | CN(C)C(=O)C1CCc2c(sc3ncnc(Nc4cc5cn[nH]c5cc4OCCCN=[N+]=[N-])c23)C1 (racemic) [Example 276, (RS)-4-{[6-(3-Azidopropoxy)-1H-indazol-5-yl]amino}-N,N-dimethyl-5,6,7,8-tetrahydro[1]benzothieno[2,3-d]pyrimidine-7-carboxamide]
23 | 3.2 | COc1cc2[nH]ncc2cc1Nc1ncnc2sc3c(c12)CCC(C(=O)N1CCCC1)C3 (racemic) [Example 183, (RS)-{4-[(6-Methoxy-1H-indazol-5-yl)amino]-5,6,7,8-tetrahydro[1]benzothieno[2,3-d]pyrimidin-7-yl}(pyrrolidin-1-yl)methanone]
24 | 3 | O=C(NCc1ccc(F)cc1)C1CCc2c(sc3ncnc(Nc4ccc5[nH]ncc5c4)c23)C1 (stereo not drawn) [Example 24, N-(4-Fluorobenzyl)-4-(1H-indazol-5-ylamino)-5,6,7,8-tetrahydro[1] benzothieno [2,3-d]pyrimidine-7-carboxamide]
25 | 2.4 | O=C(NCc1ccccn1)C1CCc2c(sc3ncnc(Nc4ccc5[nH]ncc5c4)c23)C1 (racemic) [Example 81, (RS)-4-(1H-indazol-5-ylamino)-N-(pyridin-2-ylmethyl)-5,6,7,8-tetrahydro[1]benzothieno[2,3-d]pyrimidine-7-carboxamide]
26 | 2.2 | CCOc1cc2[nH]ncc2cc1Nc1ncnc2sc3c(c12)CCC(C(=O)N(CCOC)CCOC)C3 (racemic) [Example 252, (RS)-4-[(6-Ethoxy-1H-indazol-5-yl)amino]-N,N-bis(2-methoxyethyl)-5,6,7,8-tetrahydro[1]benzothieno[2,3-d]pyrimidine-7-carboxamide]
27 | 0.9 | CCOc1cc2[nH]ncc2cc1Nc1ncnc2sc3c(c12)CCC(C(=O)N1CC[C@H](O)C1)C3 (mixture of isomers) [Example 246, {(7RS)-4-[(6-Ethoxy-1H-indazol-5-yl)amino]-5,6,7,8-tetrahydro[1]benzothieno[2,3-d]pyrimidin-7-yl}[(3S)-3-hydroxypyrrolidin-1-yl]methanone]
28 | 0.6 | CCOc1cc2[nH]ncc2cc1Nc1ncnc2sc3c(c12)CCC(C(=O)N(C)C(C)C)C3 (racemic) [Example 224, (RS)-4-[(6-Ethoxy-1H-indazol-5-yl)amino]-N-isopropyl-N-methyl-5,6,7,8-tetrahydro[1]benzothieno[2,3-d]pyrimidine-7-carboxamide]
29 | 0.5 | COc1cc2[nH]ncc2cc1Nc1ncnc2sc3c(c12)CCC(C(=O)N1CCCCC1)C3 (racemic) [Example 176, (RS)-{4-[(6-Methoxy-1H-indazol-5-yl)amino]-5,6,7,8-tetrahydro[1]benzothieno[2,3-d]pyrimidin-7-yl}(piperidin-1-yl)methanone]
30 | 0.3 | CCOc1cc2[nH]ncc2cc1Nc1ncnc2sc3c(c12)CCC(C(=O)N1CCOCC1)C3 (racemic) [Example 212, (RS)-{4-[(6-Ethoxy-1H-indazol-5-yl)amino]-5,6,7,8-tetrahydro[1]benzothieno[2,3-d]pyrimidin-7-yl}(morpholin-4-yl)methanone]
